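Growth conditions: 96-well plates. Treatment: test compound, 48 hours, 5 concentrations. Analysis: linear interpolation between bracketing concentrations; unreached endpoints set to highest concentration. TGI: total growth inhibition.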
Experiments:
Test in all cases: inhibition of tumour cell growth, NCI panel, 48 h
SNB-19 CNS = system: SNB-19 CNS
UACC-62 melanoma = system: UACC-62 melanoma
HOP-62 NSCLC = system: HOP-62 NSCLC
NCI/ADR-RES ovarian = system: NCI/ADR-RES ovarian
RXF 393 renal = system: RXF 393 renal
SF-268 CNS = system: SF-268 CNS
OVCAR-5 ovarian = system: OVCAR-5 ovarian
HS 578T breast = system: HS 578T breast
HCT-116 colon = system: HCT-116 colon
HT29 colon = system: HT29 colon
ACHN renal = system: ACHN renal
RPMI-8226 leukemia = system: RPMI-8226 leukemia
UO-31 renal = system: UO-31 renal
CCRF-CEM leukemia = system: CCRF-CEM leukemia
OVCAR-3 ovarian = system: OVCAR-3 ovarian
SK-OV-3 ovarian = system: SK-OV-3 ovarian
SK-MEL-2 melanoma = system: SK-MEL-2 melanoma
OVCAR-8 ovarian = system: OVCAR-8 ovarian
SF-539 CNS = system: SF-539 CNS
A549 NSCLC = system: A549 NSCLC

Structure (SMILES) | TGI (SNB-19 CNS) | TGI (UACC-62 melanoma) | TGI (HOP-62 NSCLC) | TGI (NCI/ADR-RES ovarian) | TGI (RXF 393 renal) | TGI (SF-268 CNS) | TGI (OVCAR-5 ovarian) | TGI (HS 578T breast) | TGI (HCT-116 colon) | TGI (HT29 colon) | TGI (ACHN renal) | TGI (RPMI-8226 leukemia) | TGI (UO-31 renal) | TGI (CCRF-CEM leukemia) | TGI (OVCAR-3 ovarian) | TGI (SK-OV-3 ovarian) | TGI (SK-MEL-2 melanoma) | TGI (OVCAR-8 ovarian) | TGI (SF-539 CNS) | TGI (A549 NSCLC)
CCOC(=O)C1=C(C)NC(=O)N([N+](=O)[O-])C1c1ccccc1C(F)(F)F (stereo not given) | > 100 µM | > 100 µM | > 100 µM | > 100 µM | > 100 µM | > 100 µM | > 100 µM | > 100 µM | > 100 µM | > 100 µM | > 100 µM | 72.4 µM | > 100 µM | > 100 µM | > 100 µM | > 100 µM | > 100 µM | > 100 µM | 71.9 µM | > 100 µM
CCc1cc(=O)n(/C(C)=C/c2ccccc2)n1C | > 100 µM | > 100 µM | > 100 µM | > 100 µM | > 100 µM | > 100 µM | > 100 µM | > 100 µM | > 100 µM | > 100 µM | > 100 µM | > 100 µM | > 100 µM | > 100 µM | > 100 µM | > 100 µM | > 100 µM | > 100 µM | > 100 µM | > 100 µM

Reference: PubChem BioAssay (NCI)
